ChEMBL document CHEMBL5537150, “Synthesis of melampomagnolide B derivatives as potential anti-Triple Negative Breast Cancer agents” (Eur J Med Chem, 2024)
Blank lines part the entries; values can stand above or below the molecule they belong to. Calls of active or inactive are those of the source. The calls are words filed in the database; no cut-off is given here.

Columns and labels:
[1] = tested on: MDA-MB-231; assay: Antiproliferative activity against human MDA-MB-231 cells assessed as inhibition of cell growth incubated for 72 hrs by MTT assay; type: functional, cell-based; conditions: MDA-MB-231, 72 h
[2] = tested on: MDA-MB-468; assay: Antimigratory activity in human MDA-MB-468 cells assessed as downregulation of Vimentin protein expression incubated for 48 hrs by Western blotting analysis; type: functional, cell-based
[3] = tested on: MDA-MB-468; assay: Antimigratory activity in human MDA-MB-468 cells assessed as downregulation of N-cadherin protein expression incubated for 48 hrs by Western blotting analysis; type: functional, cell-based
[4] = tested on: MDA-MB-468; assay: Induction of apoptosis in human MDA-MB-468 cells at 0.5 uM incubated for 48 hrs by annexin-V-APC/PI staining based flow cytometric analysis (reference value: 5.65 +/- 2.76 %); type: functional
[5] = tested on: MDA-MB-231; assay: Induction of apoptosis in human MDA-MB-231 cells at 0.5 uM incubated for 48 hrs by annexin-V-APC/PI staining based flow cytometric analysis (reference value: 5.9 +/- 0.26 %); type: functional
[6] = tested on: MDA-MB-231; assay: Antimigratory activity in human MDA-MB-231 cells assessed as reduction in number of migrated cells incubated for 48 hrs by crystal violet staining based transwell assay; type: functional, cell-based
[7] = tested on: MDA-MB-231; assay: Induction of apoptosis in human MDA-MB-231 cells assessed as upregulation of Bax protein expression incubated for 48 hrs by Western blotting analysis; type: functional, cell-based
[8] = tested on: MDA-MB-468; assay: Induction of apoptosis in human MDA-MB-468 cells at 5 uM incubated for 48 hrs by annexin-V-APC/PI staining based flow cytometric analysis (reference value: 5.65 +/- 2.76 %); type: functional
[9] = tested on: MDA-MB-231; assay: Antimigratory activity in human MDA-MB-231 cells assessed as downregulation of Vimentin protein expression incubated for 48 hrs by Western blotting analysis; type: functional, cell-based
[10] = tested on: MDA-MB-468; assay: Antimigratory activity in human MDA-MB-468 cells assessed as reduction in number of migrated cells incubated for 48 hrs by crystal violet staining based transwell assay; type: functional, cell-based
[11] = tested on: MDA-MB-231; assay: Inhibition of NF-kappaB signalling pathway in human MDA-MB-231 cells assessed as upregulation of cytoplasmic p65 expression at 0.2 to 2 uM incubated for 48 hrs by Western blotting analysis; type: cell-based; conditions: dose 0.2-2 µM
[12] = tested on: 4T1; assay: Antiproliferative activity against mouse 4T1 cells assessed as inhibition of cell growth incubated for 72 hrs by MTT assay; type: functional, cell-based; conditions: 4T1, 72 h
[13] = tested on: MDA-MB-231; assay: Antimigratory activity in human MDA-MB-231 cells assessed as downregulation of N-cadherin protein expression incubated for 48 hrs by Western blotting analysis; type: functional, cell-based
[14] = tested on: MDA-MB-231; assay: Inhibition of NF-kappaB signalling pathway in human MDA-MB-231 cells assessed as effect on total p65 protein level at 0.2 to 2 uM incubated for 48 hrs by Western blotting analysis; type: cell-based; conditions: dose 0.2-2 µM
[15] = tested on: MDA-MB-231; assay: Induction of apoptosis in human MDA-MB-231 cells at 5 uM incubated for 48 hrs by annexin-V-APC/PI staining based flow cytometric analysis (reference value: 5.9 +/- 0.26 %); type: functional
[16] = tested on: MDA-MB-231; assay: Induction of apoptosis in human MDA-MB-231 cells assessed as downregulation of MCL-1 protein expression incubated for 48 hrs by Western blotting analysis; type: functional, cell-based
[17] = tested on: MDA-MB-231; assay: Inhibition of NF-kappaB signalling pathway in human MDA-MB-231 cells assessed as downregulation of nuclear p65 expression at 0.2 to 2 uM incubated for 48 hrs by Western blotting analysis; type: cell-based; conditions: dose 0.2-2 µM
[18] = tested on: MDA-MB-231; assay: Induction of apoptosis in human MDA-MB-231 cells assessed as downregulation of BCL-xl protein expression incubated for 48 hrs by Western blotting analysis; type: functional, cell-based
[19] = tested on: MDA-MB-231; assay: Inhibition of NF-kappaB signalling pathway in human MDA-MB-231 cells assessed as inhibition of p65 nuclear translocation at 0.2 to 2 uM incubated for 48 hrs by Western blotting analysis; type: cell-based; conditions: dose 0.2-2 µM
[20] = tested on: MDA-MB-468; assay: Induction of apoptosis in human MDA-MB-468 cells at 2 uM incubated for 48 hrs by annexin-V-APC/PI staining based flow cytometric analysis (reference value: 5.65 +/- 2.76 %); type: functional
[21] = tested on: MDA-MB-231; assay: Inhibition of NF-kappaB signalling pathway in human MDA-MB-231 cells assessed as downregulation of IkappaBalpha phosphorylation at 0.5 to 2 uM incubated for 48 hrs by Western blotting analysis; type: cell-based; conditions: dose 0.5-2 µM
[22] = tested on: MDA-MB-468; assay: Induction of apoptosis in human MDA-MB-468 cells at 1 uM incubated for 48 hrs by annexin-V-APC/PI staining based flow cytometric analysis (reference value: 5.65 +/- 2.76 %); type: functional
[23] = tested on: MDA-MB-468; assay: Induction of apoptosis in human MDA-MB-468 cells at 0.2 uM incubated for 48 hrs by annexin-V-APC/PI staining based flow cytometric analysis (reference value: 5.65 +/- 2.76 %); type: functional
[24] = tested on: MDA-MB-231; assay: Inhibition of NF-kappaB signalling pathway in human MDA-MB-231 cells assessed as downregulation of p65 phosphorylation at 0.5 to 2 uM incubated for 48 hrs by Western blotting analysis; type: cell-based; conditions: dose 0.5-2 µM
[25] = tested on: MDA-MB-231; assay: Induction of apoptosis in human MDA-MB-231 cells at 2 uM incubated for 48 hrs by annexin-V-APC/PI staining based flow cytometric analysis (reference value: 5.9 +/- 0.26 %); type: functional
[26] = tested on: MDA-MB-231; assay: Induction of apoptosis in human MDA-MB-231 cells assessed as downregulation of BCL-2 protein expression incubated for 48 hrs by Western blotting analysis; type: functional, cell-based
[27] = tested on: NIH3T3; assay: Cytotoxicity against mouse 3T3 cells at 1 uM incubated for 72 hrs by MTT assay; type: toxicity, cell-based; conditions: nih3t3, 72 h
[28] = tested on: MDA-MB-231; assay: Induction of apoptosis in human MDA-MB-231 cells at 0.2 uM incubated for 48 hrs by annexin-V-APC/PI staining based flow cytometric analysis (reference value: 5.9 +/- 0.26 %); type: functional
[29] = tested on: SUM-159-PT; assay: Antiproliferative activity against human SUM159 cells assessed as inhibition of cell growth incubated for 72 hrs by MTT assay; type: functional, cell-based
[30] = tested on: MCF7; assay: Antiproliferative activity against human MCF7 cells assessed as inhibition of cell growth incubated for 72 hrs by MTT assay; type: functional, cell-based; conditions: MCF7, 72 h
[31] = tested on: MDA-MB-468; assay: Antiproliferative activity against human MDA-MB-468 cells assessed as inhibition of cell growth incubated for 72 hrs by MTT assay; type: functional, cell-based; conditions: MDA-MB-468, 72 h
[32] = tested on: MDA-MB-231; assay: Induction of apoptosis in human MDA-MB-231 cells at 1 uM incubated for 48 hrs by annexin-V-APC/PI staining based flow cytometric analysis (reference value: 5.9 +/- 0.26 %); type: functional

IC50 [1]: 1680 nM
SMILES: C=C1C(=O)O[C@H]2[C@H]1C(COC(=O)CC(C)(C)CC(=O)Oc1ccc(-c3cc(=S)ss3)cc1)C/C=C\CC[C@@]1(C)O[C@@H]21 (stereo partly drawn)

IC50 [1]: 12800 nM
SMILES: C=C1C(=O)O[C@H]2[C@H]1C(COC(=O)CC1(CC(=O)O)CCCCC1)C/C=C\CC[C@@]1(C)O[C@@H]21 (stereo partly drawn)

IC50 [1]: > 50000 nM
SMILES: C=C1C(=O)O[C@H]2[C@H]1C(COC(=O)CCCCC(=O)O)C/C=C\CC[C@@]1(C)O[C@@H]21 (stereo partly drawn)

IC50 [12]: 2850 nM
IC50 [1]: 1070 nM
IC50 [30]: 1810 nM
IC50 [31]: 370 nM
SMILES: C=C1C(=O)O[C@H]2[C@H]1C(COC(=O)/C=C/c1ccccc1OCCc1ccc(-c3cc(=S)ss3)cc1)C/C=C\CC[C@@]1(C)O[C@@]21C (stereo partly drawn)
Activity [2]: Dose-Dependent Effect
Activity [3]: Dose-Dependent Effect
Activity [4]: 4.3%
Activity [5]: 7.9%
Activity [6]: Dose-Dependent Effect
Activity [7]: Dose-Dependent Effect
Activity [8]: 52.61%
Activity [9]: Dose-Dependent Effect
Activity [10]: Dose-Dependent Effect
inhibition [11]: Active
Activity [13]: Dose-Dependent Effect
inhibition [14]: inactive
Activity [15]: 49.35%
Activity [16]: Dose-Dependent Effect
inhibition [17]: Active
Activity [18]: Dose-Dependent Effect
inhibition [19]: Active
Activity [20]: 11.32%
inhibition [21]: Active
Activity [22]: 4.87%
Activity [23]: 5.8%
inhibition [24]: Active
Activity [25]: 20.32%
Activity [26]: Dose-Dependent Effect
Activity [27]: Toxic
Activity [28]: 6.85%
IC50 [29]: 1060 nM
Activity [32]: 15.46%

IC50 [1]: 1760 nM
SMILES: C=C1C(=O)O[C@H]2[C@H]1C(COC(=O)CC1(CC(=O)Oc3ccc(-c4cc(=S)ss4)cc3)CCCCC1)C/C=C\CC[C@@]1(C)O[C@@H]21 (stereo partly drawn)

IC50 [1]: > 50000 nM
SMILES: C=C1C(=O)O[C@H]2[C@H]1C(COC(=O)CCC(=O)O)C/C=C\CC[C@@]1(C)O[C@@]21C (stereo partly drawn)

IC50 [1]: 2110 nM
SMILES: C=C1C(=O)O[C@H]2[C@H]1C(COC(=O)CC1(CC(=O)Oc3ccc(-c4cc(=S)ss4)cc3)CCCC1)C/C=C\CC[C@@]1(C)O[C@@H]21 (stereo partly drawn)

The next lines start with the molecule.

SMILES: C=C1C(=O)O[C@H]2[C@H]1CC/C(C(=O)OCCCCOc1ccc(-c3cc(=S)ss3)cc1)=C\CC[C@@]1(C)O[C@@H]21
IC50 [1]: 2470 nM

SMILES: C=C1C(=O)O[C@H]2[C@H]1C(COC(=O)c1cc3ccccc3cc1C(=O)O)C/C=C\CC[C@@]1(C)O[C@@H]21 (stereo partly drawn)
IC50 [1]: 4960 nM

SMILES: C=C1C(=O)O[C@H]2[C@H]1C(COC(=O)c1cc3ccccc3cc1C(=O)Oc1ccc(-c3cc(=S)ss3)cc1)C/C=C\CC[C@@]1(C)O[C@@H]21 (stereo partly drawn)
IC50 [1]: 7580 nM

SMILES: C=C1C(=O)O[C@H]2[C@H]1C(COC(=O)CC(C)(C)CC(=O)O)C/C=C\CC[C@@]1(C)O[C@@H]21 (stereo partly drawn)
IC50 [1]: 36400 nM

SMILES: Oc1ccc(-c2cc(=S)ss2)cc1
IC50 [1]: > 50000 nM
